Laboratory results from ChEMBL document CHEMBL3885881, “DrugMatrix”.

Species on record: Rattus norvegicus
Experiment: DrugMatrix - Regimen: Daily Repeat
Format: toxicity, organism-based, Sprague-Dawley
Design: regimen Daily Repeat, gender Male, age 6-8 weeks
Settings: in vivo, po, route oral GAVAGE, vehicle .5 % CMC; for ABSOLUTE BASOPHIL / ABSOLUTE EOSINOPHIL / ABSOLUTE LYMPHOCYTE / ABSOLUTE MONOCYTE / ABSOLUTE SEGMENTED NEUTROPHIL / BASOPHIL / EOSINOPHIL / ERYTHROCYTE COUNT / HEMATOCRIT / HEMOGLOBIN / LEUKOCYTE COUNT / LYMPHOCYTE / MEAN CORPUSCULAR HEMOGLOBIN / MEAN CORPUSCULAR HEMOGLOBIN CONCENTRATION / MEAN CORPUSCULAR VOLUME / MONOCYTE / NEUTROPHIL / NUCLEATED RED BLOOD CELLS / PLATELET COUNT: tissue Blood; for ALANINE AMINOTRANSFERASE / ALBUMIN / ALKALINE PHOSPHATASE / ASPARTATE AMINOTRANSFERASE / BLOOD UREA NITROGEN / CARBON DIOXIDE / CHLORIDE / CHOLESTEROL / CREATINE PHOSPHOKINASE / CREATININE / GLUCOSE / LACTATE DEHYDROGENASE / LIPASE / PHOSPHORUS / POTASSIUM / SODIUM / TOTAL BILIRUBIN / TOTAL PROTEIN / URIC ACID: tissue Plasma
[1] = 0 mg/kg, 72 h, dose level Control, time 3 day
[2] = 0 mg/kg, 120 h, dose level Control, time 5 day
[3] = 200 mg/kg, 72 h, dose level Low, time 3 day

Compound: Cc1cnc(C(=O)NCCc2ccc(S(=O)(=O)NC(=O)NC3CCCCC3)cc2)cn1 [GLIPIZIDE]
- ABSOLUTE BASOPHIL [1]: 0 CELLS/uL
- ABSOLUTE EOSINOPHIL [1]: 0 CELLS/uL
- ABSOLUTE LYMPHOCYTE [1]: 12191.17 CELLS/uL
- ABSOLUTE MONOCYTE [1]: 183.17 CELLS/uL
- ABSOLUTE SEGMENTED NEUTROPHIL [1]: 1192.33 CELLS/uL
- BASOPHIL [1]: 0%
- EOSINOPHIL [1]: 0%
- ERYTHROCYTE COUNT [1]: 5.51 x10E6/uL
- HEMATOCRIT [1]: 35.45%
- HEMOGLOBIN [1]: 13.82 G/DL
- LEUKOCYTE COUNT [1]: 13.57 x10E3/uL
- LYMPHOCYTE [1]: 89.83%
- MEAN CORPUSCULAR HEMOGLOBIN [1]: 25.1 pg
- MEAN CORPUSCULAR HEMOGLOBIN CONCENTRATION [1]: 38.98 G/DL
- MEAN CORPUSCULAR VOLUME [1]: 64.42 fL
- MONOCYTE [1]: 1.33%
- NEUTROPHIL [1]: 8.83%
- NUCLEATED RED BLOOD CELLS [1]: 0 /100WBC
- PLATELET COUNT [1]: 1118.17 x10E3/uL
- ALANINE AMINOTRANSFERASE [1]: 55 u/L
- ALBUMIN [1]: 4.15 G/DL
- ALKALINE PHOSPHATASE [1]: 449.5 u/L
- ASPARTATE AMINOTRANSFERASE [1]: 112.83 u/L
- BLOOD UREA NITROGEN [1]: 17.33 mg/dL
- CARBON DIOXIDE [1]: 29.5 mmol/L
- CHLORIDE [1]: 101 MEQ/L
- CHOLESTEROL [1]: 70 mg/dL
- CREATINE PHOSPHOKINASE [1]: 1325.83 u/L
- CREATININE [1]: 0.18 mg/dL
- GLUCOSE [1]: 171.5 mg/dL
- LACTATE DEHYDROGENASE [1]: 386 u/L
- LIPASE [1]: 10 u/L
- PHOSPHORUS [1]: 11.57 mg/dL
- POTASSIUM [1]: 6.21 MEQ/L
- SODIUM [1]: 141.65 MEQ/L
- TOTAL BILIRUBIN [1]: 0.15 mg/dL
- TOTAL PROTEIN [1]: 5.75 G/DL
- URIC ACID [1]: 1.28 mg/dL
- ABSOLUTE BASOPHIL [2]: 0 CELLS/uL
- ABSOLUTE EOSINOPHIL [2]: 138.17 CELLS/uL
- ABSOLUTE LYMPHOCYTE [2]: 13283.17 CELLS/uL
- ABSOLUTE MONOCYTE [2]: 303.83 CELLS/uL
- ABSOLUTE SEGMENTED NEUTROPHIL [2]: 1308.17 CELLS/uL
- BASOPHIL [2]: 0%
- EOSINOPHIL [2]: 1%
- ERYTHROCYTE COUNT [2]: 5.32 x10E6/uL
- HEMATOCRIT [2]: 33.8%
- HEMOGLOBIN [2]: 13.63 G/DL
- LEUKOCYTE COUNT [2]: 15.03 x10E3/uL
- LYMPHOCYTE [2]: 88.33%
- MEAN CORPUSCULAR HEMOGLOBIN [2]: 25.68 pg
- MEAN CORPUSCULAR HEMOGLOBIN CONCENTRATION [2]: 40.35 G/DL
- MEAN CORPUSCULAR VOLUME [2]: 63.67 fL
- MONOCYTE [2]: 1.83%
- NEUTROPHIL [2]: 8.83%
- NUCLEATED RED BLOOD CELLS [2]: 0 /100WBC
- PLATELET COUNT [2]: 1097.5 x10E3/uL
- ALANINE AMINOTRANSFERASE [2]: 54.5 u/L
- ALBUMIN [2]: 4.27 G/DL
- ALKALINE PHOSPHATASE [2]: 337 u/L
- ASPARTATE AMINOTRANSFERASE [2]: 94.67 u/L
- BLOOD UREA NITROGEN [2]: 17 mg/dL
- CARBON DIOXIDE [2]: 28.33 mmol/L
- CHLORIDE [2]: 101.5 MEQ/L
- CHOLESTEROL [2]: 71.33 mg/dL
- CREATINE PHOSPHOKINASE [2]: 628.17 u/L
- CREATININE [2]: 0.19 mg/dL
- GLUCOSE [2]: 177.83 mg/dL
- LACTATE DEHYDROGENASE [2]: 500.5 u/L
- LIPASE [2]: 9.5 u/L
- PHOSPHORUS [2]: 12.3 mg/dL
- POTASSIUM [2]: 5.63 MEQ/L
- SODIUM [2]: 143.03 MEQ/L
- TOTAL BILIRUBIN [2]: 0.2 mg/dL
- TOTAL PROTEIN [2]: 6.02 G/DL
- URIC ACID [2]: 1.5 mg/dL
- ABSOLUTE BASOPHIL [3]: 0 CELLS/uL
- ABSOLUTE EOSINOPHIL [3]: 38 CELLS/uL
- ABSOLUTE LYMPHOCYTE [3]: 11413.33 CELLS/uL
- ABSOLUTE MONOCYTE [3]: 0 CELLS/uL
- ABSOLUTE SEGMENTED NEUTROPHIL [3]: 882 CELLS/uL
- BASOPHIL [3]: 0%
- EOSINOPHIL [3]: 0.33%
- ERYTHROCYTE COUNT [3]: 5.65 x10E6/uL
- HEMATOCRIT [3]: 34.83%
- HEMOGLOBIN [3]: 13.93 G/DL
- LEUKOCYTE COUNT [3]: 12.33 x10E3/uL
- LYMPHOCYTE [3]: 92.67%
- MEAN CORPUSCULAR HEMOGLOBIN [3]: 24.63 pg
- MEAN CORPUSCULAR HEMOGLOBIN CONCENTRATION [3]: 40 G/DL
- MEAN CORPUSCULAR VOLUME [3]: 61.63 fL
- MONOCYTE [3]: 0%
- NEUTROPHIL [3]: 7%
- NUCLEATED RED BLOOD CELLS [3]: 0 /100WBC
- PLATELET COUNT [3]: 1245 x10E3/uL
- ALANINE AMINOTRANSFERASE [3]: 51.33 u/L
- ALBUMIN [3]: 4.23 G/DL
- ALKALINE PHOSPHATASE [3]: 334.33 u/L
- ASPARTATE AMINOTRANSFERASE [3]: 84.33 u/L
- BLOOD UREA NITROGEN [3]: 15.33 mg/dL
- CARBON DIOXIDE [3]: 27.33 mmol/L
- CHLORIDE [3]: 103.33 MEQ/L
- CHOLESTEROL [3]: 74.33 mg/dL
- CREATINE PHOSPHOKINASE [3]: 335 u/L
- CREATININE [3]: 0.13 mg/dL
- GLUCOSE [3]: 133.67 mg/dL
- LACTATE DEHYDROGENASE [3]: 97.33 u/L
- LIPASE [3]: 10.33 u/L
- PHOSPHORUS [3]: 11.7 mg/dL
- POTASSIUM [3]: 5.79 MEQ/L
- SODIUM [3]: 143.47 MEQ/L
- TOTAL BILIRUBIN [3]: 0.13 mg/dL
- TOTAL PROTEIN [3]: 5.77 G/DL
- URIC ACID [3]: 1.43 mg/dL
